Measured values from patent publication US11130780B2, “Inhibitors of growth factor activation enzymes” (Washington University, priority 2015, dated 2021).
pKi: −log10 of the molar value. Where two headings read alike, the source gives them in different places. Positions of bridges follow the written chain, without caps; N, C: chain ends. Residues, ends and D or L forms follow the SMILES beside them. *: point of attachment. X2 = N=C(N)NCCC[C@H](N*)C(=O)c1nccs1

Legend:
Assay type in all cases: biochemical
HGFA [1] = target: T1, HGFA (Homo sapiens, UniProt Q04756); assay: Fluorescent kinetic enzyme inhibitor assay of HGFA; conditions: read-out: HGFA Ki
T1 construct: His6 tag (N); seven amino acid spacer and seven amino acid TEV cleavage site (N); Honey Bee melittin signal peptide (N); made in house; host or cells: High 5 insect cells (baculovirus; virus raised in Sf9)
T1 sequence (Q04756 373-655): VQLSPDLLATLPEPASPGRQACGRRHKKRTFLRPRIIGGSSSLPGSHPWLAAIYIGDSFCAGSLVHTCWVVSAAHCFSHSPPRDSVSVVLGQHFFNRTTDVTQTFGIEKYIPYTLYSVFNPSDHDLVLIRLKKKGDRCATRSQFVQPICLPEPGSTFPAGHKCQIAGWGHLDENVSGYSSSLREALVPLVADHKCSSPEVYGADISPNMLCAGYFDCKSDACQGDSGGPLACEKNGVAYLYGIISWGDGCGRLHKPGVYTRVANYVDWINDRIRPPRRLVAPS
Description: Using primers identified as SEQ ID NO 1, SEQ ID NO 2, and standard PCR protocols, the nucleotide sequence encoding amino acids 373-655 of HGFA was synthesized. This PCR product was cloned into the SfoI-HindIII sites of a modified pFastBac HT baculovirus expression vector (Addgene, Cambridge, Mass.). This vector contains a six amino His tag followed by a seven amino spacer and a seven amino acid TEV cleavage site placed immediately downstream of the Honey Bee melittin signal peptide. Using a modified Bac to Bac Expression System (Life Technologies, Carlsbad, Calif.), recombinant HGFA bacmids were obtained by transforming DH10Bac Escherichia coli cells. To obtain HGFA containing baculovirus, purified bacmids were transfected into Sf9 insect cells. After 5 days in culture at 27° C., media was harvested from transfected Sf9 cells. This media was used to prepare baculovirus infected insect cells (BIICs). These BIIICs were used to infect High 5 insect cells. Four days post infection, media was harvested and recombinant protein prepared as follows. Media was chilled to 4° C. and spun at 4000×g for 20 minutes (all subsequent steps were performed at 4° C. unless noted). Clarified media was passed first through a Whatman GF/B 1 um (#1821-047, GE Healthcare Life Sciences, Piscataway, N.J.) and then a 0.22 um PES membrane (#99955, TPP Techno Plastic Products AG, Trasadingen, Switzerland) and then concentrated using a Pall Centramate tangential flow system and Centramate T-series Cassette (#OS010T12, Pall Corporation, Port Washington, N.Y.). Concentrated media was then buffer exchanged in two steps, five volumes of 50 mM Na-phosphate, 500 mM NaCl, pH 6.2, followed by five volumes of 50 mM Na-phosphate, 500 mM NaCl, pH 7.5. The concentrated and buffered exchanged insect cell media was again filtered as above and made 25 mM imidazole (#1202, Sigma-Aldrich, St. Louis, Mo.) and was mixed with nickel agarose beads (#H-321-25, Gold Biotechnology, Inc., St. Louis Mo.). After mixing this slurry for 12 hours, nickel agarose beads were allowed to settle by gravity and then loaded into a column. Beads were washed with buffer (25 mM Na-phosphate, 500 mM NaCl, 25 mM imidazole, pH 8) and the bound protein eluted using (25 mM Na-phosphate, 500 mM NaCl, 250 mM imidazole, pH 8). Using a Amicon Ultra-4 Centrifugal filters (#UFC801008, Merck Millipore, Ltd., Tullagreen, Ireland), peak protein fractions were concentrated and run over a Superdex-200 10/300 GL column (GE Healthcare Life Sciences, Piscataway, N.J.) in 10 mM Tris, 200 mM NaCl, 0.2 mM EDTA, pH 8. HGFA containing fractions were pooled, concentrated, made 50% glycerol, and stored at minus 20° C. Protein was quantitated using a modified Lowry protein assay (#500-0006, Bio-Rad Laboratories, Hercules, Calif.).
Inhibitors (11-pt serial dilutions, 0-20 μM final concentration in reaction) were serially diluted in DMSO (2% DMSO final concentration) and then mixed with either recombinant serine protease domain of HGFA [Z. Han, P. K. Harris, D. E. Jones, R. Chugani, T. Kim, M. Agarwal, W. Shen, S. A. Wildman, J. W. Janetka, Acs Med Chem Lett 2014, 5, 1219-1224], matriptase (Charles Craik, UCSF) or hepsin* (#4776-SE-010, R&D Systems, Minneapolis, Minn.) in black 384 well plates (Corning #3575. Corning, N.Y.). […] The final substrate concentrations for all assays were at the Km for the respective enzymes. Changes in fluorescence (excitation at 380 nm and emission at 460 nm) were measured at room temperature over time in a Biotek Synergy 2 plate reader (Winnoski, Vt.). Using GraphPad Prism version 6.04 software program, (GraphPad Software, San Diego, Calif., www.graphpad.com), a four parameter curve fit was used to determine the inhibitor IC50s from a plot of the mean reaction velocity versus the inhibitor concentration. The IC50 values represent the average of three separate experimental determinations.

hepsin = target: T2, hepsin (Homo sapiens, UniProt P05981); assay: P4-P2 substrate specificity using HyCoSuL, hepsin; parameters: concentration or dose not given beside the values; conditions: HyCoSuL substrate library; for P2 Position % Activity Hepsin: amino acid fixed at P2 position; for P3 Position % Activity Hepsin: amino acid fixed at P3 position; for P4 Position % Activity Hepsin: amino acid fixed at P4 position
T2 construct: purchased R&D Systems 4776-SE-010
T2 sequence (P05981 163-417 limits assumed): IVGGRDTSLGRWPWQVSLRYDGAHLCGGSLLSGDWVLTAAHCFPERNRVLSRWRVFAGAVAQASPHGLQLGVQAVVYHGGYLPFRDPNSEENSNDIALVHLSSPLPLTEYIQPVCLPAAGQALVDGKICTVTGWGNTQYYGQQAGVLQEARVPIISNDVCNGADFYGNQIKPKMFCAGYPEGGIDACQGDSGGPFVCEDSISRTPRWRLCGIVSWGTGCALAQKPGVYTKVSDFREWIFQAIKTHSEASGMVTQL
T2 sequence (P05981 45-162 partner limits assumed): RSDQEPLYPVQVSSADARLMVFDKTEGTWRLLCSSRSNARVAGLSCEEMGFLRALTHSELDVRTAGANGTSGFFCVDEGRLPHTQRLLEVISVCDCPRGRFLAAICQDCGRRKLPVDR
Procedure: (§1) Each of the P4, P3, and P2 sublibraries were screened at the 100 μM concentration with hepsin either HGFA in a 100 μL final volume per well (99 μL of protease in buffer+1 μL of 10 mM substrates mixture). The total time of the assay was 30 minutes, however only linear portions of the progress curve (5-15 minutes) were used for velocity (RFU/s) calculations. Each sublibrary screening was repeated at least 3-times and the average value calculated from each measurement was used to create the substrate specificity matrix—the best recognized amino acid in each position was set to 100%, and other amino acids were adjusted accordingly.
Recombinant human hepsin (10 μg in 20 uL, 4776-SE-010, R&D Systems) was added to the 100 μL of activation buffer (0.1 M Tris, 0.15 M NaCl, 0.01 M CaCl2, 0.05% TRITON-X, pH=8.0) and incubated at 37° C. for 24 hours (hepsin concentration in activation buffer 2 μM). Once activated hepsin was diluted in assay buffer (0.05 M Tris, pH=9.0) to the final concentration of 4 nM and incubated at 37° C. for 15 minutes before added to a substrate.

HGFA [2] = target: T3, HGFA (Homo sapiens, UniProt Q04756); assay: P4-P2 substrate specificity using HyCoSuL, HGFA; parameters: P3 Position % Activity HGFA / P2 Position % Activity HGFA: concentration or dose not given beside the values; P4 Position % Activity HGFA: tested at 100 µM; conditions: HyCoSuL substrate library; for P2 Position % Activity HGFA: amino acid fixed at P2 position; for P3 Position % Activity HGFA: amino acid fixed at P3 position; for P4 Position % Activity HGFA: amino acid fixed at P4 position
T3 sequence (Q04756 408-655 limits assumed): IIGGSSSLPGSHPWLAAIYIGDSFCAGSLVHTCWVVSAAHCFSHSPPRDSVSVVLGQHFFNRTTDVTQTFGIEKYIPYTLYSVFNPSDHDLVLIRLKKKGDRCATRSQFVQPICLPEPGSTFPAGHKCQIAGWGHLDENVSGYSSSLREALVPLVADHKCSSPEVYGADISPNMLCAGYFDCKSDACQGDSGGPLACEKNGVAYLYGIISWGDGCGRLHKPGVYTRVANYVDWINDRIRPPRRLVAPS
T3 sequence (Q04756 373-407 partner limits assumed): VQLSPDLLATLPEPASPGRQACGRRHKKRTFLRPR
Procedure: as §1
HFGA enzyme was diluted in the assay buffer (0.15 M NaCl, 0.025 M Tris, 0.005 M CaCl2, pH=8.0) to the final concentration of 10-20 nM (depending of sublibrary) and incubated at 25° C. for 30 minutes before added to a substrate.

Compound	pKi (HGFA [1]; Table 6.1, Fluorogenic Assay)	other results
N=C(N)NCCC[C@H](NC(=O)[C@H](Cc1ccccc1)NC(=O)[C@@H](N)Cc1c[nH]c2ccccc12)C(=O)c1nc2ccccc2s1 [Compound 1-13A1, H-WFR-kbt]	5.25	
CC(C)C[C@H](NC(=O)[C@H](N)Cc1c[nH]c2ccccc12)C(=O)N[C@@H](CCCNC(=N)N)C(=O)c1nc2ccccc2s1 [Compound 1-15A1, H-dWLR-kbt]	6.89	
N=C(N)NCCC[C@H](NC(=O)[C@H](Cc1ccccc1)NC(=O)[C@H](N)Cc1c[nH]c2ccccc12)C(=O)c1nc2ccccc2s1 [Compound 1-18A1, H-dWFR-kbt]	5.65	
CC(C)C[C@H](NC(=O)[C@H](Cc1c[nH]c2ccccc12)NC(=O)[C@@H](N)Cc1cncn1COCc1ccccc1)C(=O)N[C@@H](CCCNC(=N)N)C(=O)c1nc2ccccc2s1 [Compound 1-54A1, H-His(Bom)WLR-kbt]	5.43	
CC(C)C[C@H](NC(=O)[C@@H](N)Cc1c[nH]c2ccccc12)C(=O)N[C@@H](CCCNC(=N)N)C(=O)c1nc2ccc(C(=O)O)cc2s1 [Compound 1-56A1, H-WLR-kbt-COOH]	5.86	
CC(C)C[C@H](NC(=O)[C@H](N)Cc1c[nH]c2ccccc12)C(=O)N[C@@H](CCCNC(=N)N)C(=O)c1nc2ccc(C(=O)O)cc2s1 [Compound 1-57A1, H-dWLR-kbt-COOH]	6.46	
CC(C)C[C@H](NC(=O)[C@H](CCCNC(=N)N)NC(=O)[C@H](CCCCN)NC(=O)CCCCC[N+]1=C(/C=C/C=C/C=C2/N(C)c3ccc4ccccc4c3C2(C)C)C(C)(C)c2c1ccc1ccccc21)C(=O)N[C@@H](CCCNC(=N)N)C(=O)c1nc2ccccc2s1 [Compound 1178-2, Cy5.5-KRLR(SEQ ID NO: 8)-kbt]	6.22	
CC(C)C[C@H](NC(=O)[C@H](CCCNC(=N)N)NC(=O)[C@H](CCCCN)NC(=O)CCCCC[N+]1=C(/C=C/C=C/C=C2/N(C)c3ccc4ccccc4c3C2(C)C)C(C)(C)c2c1ccc1ccccc21)C(=O)N[C@@H](CCCNC(=N)N)C(=O)CCl [Compound 1179, Cy5.5-KRLR(SEQ ID NO: 8)-cmk]	7.47	
N=C(N)NCCC[C@H](NC(=O)[C@@H]1CC(=O)NCCCC[C@H](N)C(=O)N[C@@H](CCC(N)=O)C(=O)N1)C(=O)N[C@@H](CCCNC(=N)N)C(=O)c1nccs1 [Compound 7074, (2S,5S,13S)-13-amino-2-(3-amino-3-oxopropyl)-N—((S)-5-guanidino-1-(((S)-5-guanidino-1-oxo-1-(thiazol-2-yl)pentan-2-yl)amino)-1-oxopentan-2-yl)-3,7,14-trioxo-1,4,8-triazacyclotetradecane-5-carboxamide] (H-KQDR-X2; lactam 1-3)		pKi (HGFA [1]; Table 7.1, first HGFA column): 5.23; pKi (HGFA [1]; Table 7.1, second column headed HGFA): 8.81
D-Arg		P2 Position % Activity Hepsin (hepsin): 0.00%; P3 Position % Activity Hepsin (hepsin): 66.08%; P4 Position % Activity Hepsin (hepsin): 44.37%; P2 Position % Activity HGFA (HGFA [2]): 0.00%; P3 Position % Activity HGFA (HGFA [2]): 29.10%; P4 Position % Activity HGFA (HGFA [2]): 23.20%
D-His		P2 Position % Activity Hepsin (hepsin): 0.00%; P3 Position % Activity Hepsin (hepsin): 40.09%; P4 Position % Activity Hepsin (hepsin): 19.33%; P2 Position % Activity HGFA (HGFA [2]): 0.00%; P3 Position % Activity HGFA (HGFA [2]): 11.09%; P4 Position % Activity HGFA (HGFA [2]): 7.79%

Further lines, with some results ahead:

pKi (HGFA [1]; Table 6.1, Fluorogenic Assay)	Compound	other results
< 4.70	N=C(N)NCCC[C@H](NC(=O)[C@H](CC(N)=O)NC(=O)OCC1c2ccccc2-c2ccccc21)C(=O)c1nc2ccccc2s1 [Compound 7185-3, Fmoc-NR-kbt]	
< 4.70	N=C(N)NCCC[C@H](NC(=O)[C@H](CC(=O)O)NC(=O)OCC1c2ccccc2-c2ccccc21)C(=O)c1nc2ccccc2s1 [Compound 7185-4, Fmoc-DR-kbt]	
< 4.70	N=C(N)NCCC[C@H](NC(=O)[C@H](CCC(=O)O)NC(=O)OCC1c2ccccc2-c2ccccc21)C(=O)c1nc2ccccc2s1 [Compound 7185-7, Fmoc-ER-kbt]	
5.20	N=C(N)NCCC[C@H](NC(=O)[C@H](Cc1cnc[nH]1)NC(=O)OCC1c2ccccc2-c2ccccc21)C(=O)c1nc2ccccc2s1 [Compound 7185-9, Fmoc-HR-kbt]	
5.19	CC[C@H](C)[C@H](NC(=O)OCC1c2ccccc2-c2ccccc21)C(=O)N[C@@H](CCCNC(=N)N)C(=O)c1nc2ccccc2s1 [Compound 7185-10, Fmoc-IR-kbt]	
< 4.70	N=C(N)NCCC[C@H](NC(=O)[C@H](CCCCN)NC(=O)OCC1c2ccccc2-c2ccccc21)C(=O)c1nc2ccccc2s1 [Compound 7185-12, Fmoc-KR-kbt]	
< 4.70	N=C(N)NCCC[C@H](NC(=O)[C@@H]1CCCN1C(=O)OCC1c2ccccc2-c2ccccc21)C(=O)c1nc2ccccc2s1 [Compound 7187-15, Fmoc-PR-kbt]	
< 4.70	N=C(N)NCCC[C@H](NC(=O)[C@H](CO)NC(=O)OCC1c2ccccc2-c2ccccc21)C(=O)c1nc2ccccc2s1 [Compound 7187-16, Fmoc-SR-kbt]	
< 4.70	C[C@@H](O)[C@H](NC(=O)OCC1c2ccccc2-c2ccccc21)C(=O)N[C@@H](CCCNC(=N)N)C(=O)c1nc2ccccc2s1 [Compound 7188-17, Fmoc-TR-kbt]	
